Literature values as cited in patent US6346270B1, “Phenytoin therapy” (Alza Corporation, priority 1997, dated 2002).

solubility in aqueous fluids: poorly soluble
SMILES: O=C1NC(=O)C(c2ccccc2)(c2ccccc2)N1 [phenytoin]
